Counter-ions that a name gives are not always drawn.
Legend:
OCT3 [1] = molecular target: T1, OCT3 (Rattus norvegicus, UniProt O88446); test: In situ open-circuit perfusion of rat term placenta: 5-HT extraction from fetal circulation; format: in vivo
T1 sequence (O88446 1-551): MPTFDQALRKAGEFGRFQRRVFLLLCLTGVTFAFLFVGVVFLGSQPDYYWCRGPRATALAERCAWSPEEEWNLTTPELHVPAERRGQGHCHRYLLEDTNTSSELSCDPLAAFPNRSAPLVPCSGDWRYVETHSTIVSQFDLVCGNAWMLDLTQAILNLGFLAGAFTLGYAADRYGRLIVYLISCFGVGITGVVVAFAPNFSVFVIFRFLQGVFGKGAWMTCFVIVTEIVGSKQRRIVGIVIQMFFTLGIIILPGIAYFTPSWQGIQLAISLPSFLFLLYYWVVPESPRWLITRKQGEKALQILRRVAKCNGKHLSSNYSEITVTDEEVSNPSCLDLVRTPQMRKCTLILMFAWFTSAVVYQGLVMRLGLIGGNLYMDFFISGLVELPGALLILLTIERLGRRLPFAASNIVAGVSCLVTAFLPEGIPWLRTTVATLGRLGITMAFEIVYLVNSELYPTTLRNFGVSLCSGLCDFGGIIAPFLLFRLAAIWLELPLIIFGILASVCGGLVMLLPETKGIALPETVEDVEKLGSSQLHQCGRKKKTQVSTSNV

[2] = pregnant women or women; read-out: Cmax (maximum steady-state plasma concentration); cited from earlier work
[3] = Published plasma concentrations and fetal-to-maternal ratios in (pregnant) women; format: in vivo, human; details: matches Ca x F/M ratio of published values
OCT3 [4] = molecular target: T2, OCT3 (Homo sapiens, UniProt O75751); test: [3H]5-HT uptake by basal membrane (BM) vesicles from human term placenta; format: biochemical; details: 100 nM [3H]5-HT, 10 min preincubation, room temperature, n ≥ 4, read-out: IC50 BM (OCT3-mediated 5-HT uptake)
T2 construct: MVM and BM vesicles were used to evaluate the effects of antidepressants on SERT- and OCT3-mediated uptake of 5-HT, respectively; from tissue; host or cells: human term placenta, basal membrane (BM) vesicles
T2 sequence (O75751 1-556): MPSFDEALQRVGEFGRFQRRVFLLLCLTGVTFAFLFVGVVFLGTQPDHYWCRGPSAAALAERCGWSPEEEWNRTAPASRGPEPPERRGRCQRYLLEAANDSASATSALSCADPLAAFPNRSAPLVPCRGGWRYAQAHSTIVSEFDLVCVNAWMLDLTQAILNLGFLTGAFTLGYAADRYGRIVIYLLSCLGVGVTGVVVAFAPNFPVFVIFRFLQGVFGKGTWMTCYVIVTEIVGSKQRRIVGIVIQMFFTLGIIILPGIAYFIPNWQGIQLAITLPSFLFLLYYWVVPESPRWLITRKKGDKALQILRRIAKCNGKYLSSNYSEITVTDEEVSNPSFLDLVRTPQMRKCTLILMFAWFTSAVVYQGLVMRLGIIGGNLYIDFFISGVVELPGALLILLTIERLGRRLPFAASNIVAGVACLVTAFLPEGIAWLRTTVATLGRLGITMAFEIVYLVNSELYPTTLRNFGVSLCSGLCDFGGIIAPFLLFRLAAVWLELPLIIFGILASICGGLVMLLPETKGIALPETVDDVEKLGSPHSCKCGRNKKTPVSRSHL
Protocol: Maternal decidua and chorionic plate were removed, and placental villous tissue was cut into small pieces. The tissue was homogenized in a solution containing 250 mM sucrose, 10 mM Tris-Hepes (pH 7.2), 5 mM EGTA, 5 mM EDTA and 1 mM phenylmethylsulfonyl fluoride (PMSF). Microvillous and basal membrane (MVM and BM, respectively) vesicles were prepared simultaneously, using a previously described differential centrifugation method based on Mg^2+ precipitation and separation of MVM and BM in a sucrose gradient [40]. All these procedures were performed at 4 °C.
MVM and BM samples were resuspended in intravesicular buffer (290 mM sucrose, 5 mM Hepes, 5 mM Tris; pH 7.4), and vesiculated by passaging 20 times through a 25-gauge needle as previously described [32]. Protein concentration was measured using the BCA assay.
Uptake of [^3H]5-HT into MVM or BM vesicles was measured at room temperature using the rapid vacuum filtration technique as previously described [32]. […] Filter-associated radioactivity was determined by liquid scintillation counting. Non-specific tracer binding to the filter and plasma membranes was accounted for by subtracting radioactivity measured in protein-free controls and uptake at time zero, respectively, from the total vesicle uptake measurements. […]

[5] = 100 µM antidepressant, male placentas
[6] = 1 µM (therapeutic concentration), fetal sex not considered
[7] = 100 µM antidepressant, 1 nM [3H]5-HT, both fetal sexes together, vs control

Structure (SMILES)	Effect on 5-HT extraction from circulation of male fetuses (OCT3 [1]; [5])	Cmax [2] [µM]	Effect on placental extraction of 5-HT from fetal circulation (OCT3 [1]; [6])	Effect on placental extraction of 5-HT from fetal circulation (OCT3 [1]; [7])	further results
COc1ccc(C(CN(C)C)C2(O)CCCCC2)cc1 (centres unmarked) [Venlafaxine, venlafaxine hydrochloride]	susceptible to inhibition				
CN[C@H]1CC[C@@H](c2ccc(Cl)c(Cl)c2)c2ccccc21 [Sertraline, sertraline hydrochloride]	susceptible to inhibition				
COCCCC/C(=N\OCCN)c1ccc(C(F)(F)F)cc1 [Fluvoxamine, fluvoxamine maleate]	susceptible to inhibition	1.3	no significant inhibition	significantly decreased	Ca;fetal (average fetal plasma concentration) [3]: 348 nM; IC50 (OCT3 [4]): 15.2 nM
CNCCC(Oc1ccc(C(F)(F)F)cc1)c1ccccc1 (centres unmarked) [Fluoxetine, fluoxetine hydrochloride]	susceptible to inhibition				
CCN1/C(=C/c2ccc3ccccc3[n+]2CC)C=Cc2ccccc21.[I-] [decynium-22]					Effect of model OCT3 inhibitor on 5-HT extraction from fetal circulation (OCT3 [1]; 10 µM decynium-22): sensitive to co-administration of decynium-22
Fc1ccc([C@@H]2CCNC[C@H]2COc2ccc3c(c2)OCO3)cc1 [Paroxetine, paroxetine hydrochloride]	susceptible to inhibition	1	no significant inhibition	significantly decreased	Effect on 5-HT extraction from fetal circulation in male placentas (OCT3 [1]; 1 µM (therapeutic concentration), male placentas): potent inhibitor in males; Effect on 5-HT extraction from circulation of female fetuses (OCT3 [1]; 100 µM antidepressant, female placentas): prone to inhibition; IC50 (OCT3 [4]): 4.39 nM
CN(C)CCCC1(c2ccc(F)cc2)OCc2cc(C#N)ccc21 (centres unmarked) [Citalopram, citalopram hydrobromide]		1.2	no significant inhibition	significantly decreased	

Source: PMC8397948, “Effect of Selected Antidepressants on Placental Homeostasis of Serotonin: Maternal and Fetal Perspectives” (Pharmaceutics, 2021)
